For 22 compounds, TGI and GI50 results are on record in PubChem BioAssay (NCI).

Assay in all cases: NCI-60 cell line screen, 48 h
Assay [1] deals with HCT-15 colon.
Assay [2] concerns U251 CNS.
Assay [3] relates to KM20L2 colon.
Assay [4] concerns OVCAR-3 ovarian.
For assay [5], the system named is MALME-3M melanoma.
Assay [6] concerns HL-60(TB) leukemia.
Assay [7] concerns NCI-H23 lung.
Assay [8] deals with DMS 273 small cell lung.
Assay [9] deals with UO-31 renal.
The subject of assay [10] is MDA-MB-231 breast.

Converted amounts (≈) assume the structure as drawn. “And” between values parts separate entries of the source, which are not always exact repeats. Equal values may be shown once.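 In this assay, cells in 96-well plates receive the compound at five concentrations for 48 hours. Endpoints are linearly interpolated between the surrounding concentrations. Here, GI50 denotes the concentration required for 50% inhibition of growth. TGI denotes the concentration required for complete inhibition of growth.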 Bounds are passed on as bounds.

For `CCOC(=O)C1CCn2c(nc3c2c(=O)n(C)c(=O)n3C)S1` (stereo unspecified), the TGI in assay [1], in [2], in assay [3], in [4], in assay [5] and in assay [6] was over 100 µM each time. The TGI in [7] and in assay [8] was over 100 µM in each case.

With `COC(=O)C1C(O)CCC2CN3CCc4c([nH]c5cccc(OC)c45)C3CC21` (stereo unspecified), the TGI in assay [1], in assay [2], in assay [9], in assay [4], in assay [5] and in [10] was over 100 µM each time. Further, the TGI in [6] and in assay [7] was over 100 µM each time.

Turning to `O=C(CCN1CC2CCC(CC2)C1)c1cccs1`, the TGI in [1] is 44.1 µM; in [2] it was 33.5 µM; in [9], 23.9 µM; in [4], 58 µM; in assay [5] it was 39.3 µM; in assay [10], 34.4 µM. Besides, the figures for the TGI in assay [6] and in assay [7] were 44.3 µM and 36.7 µM, respectively.

Consider `N#CC(c1ccccc1)N1CCCN(C(C#N)c2ccccc2)C1c1ccccc1O` (stereo unspecified), for which the TGI in assay [1], in assay [2], in [9], in assay [4], in assay [5] and in [10] was over 100 µM in each case. Moreover, the TGI in assay [6] and in [7] was over 100 µM each time.

`CC1(C)CC(=O)C2=C(C1)NC(SSC1=C(C#N)C(c3ccc(F)cc3)C3=C(CC(C)(C)CC3=O)N1)=C(C#N)C2c1ccc(F)cc1` (stereo unspecified): the GI50 was 30.3 µg/mL (≈ 46.3 µM) in assay [1]; 15 µg/mL (≈ 22.9 µM) in assay [2]; 32 µg/mL (≈ 48.9 µM) in assay [9]; 25.6 µg/mL in [4]; 31.8 µg/mL in [5]; 29 µg/mL in assay [10]. Besides, the GI50 in assay [6] was 47.1 µg/mL; in assay [7], 31.1 µg/mL (≈ 47.5 µM). In addition, the TGI was determined as 64 µg/mL in assay [1]; 15 µg/mL in assay [2]; 74.9 µg/mL in [9]; 46.1 µg/mL in assay [4]; 56.6 µg/mL in assay [5]; 51.7 µg/mL in assay [10]. In addition, the TGI in assay [6] is over 150 µg/mL; in assay [7], 68.2 µg/mL.

Regarding `C[C@]12CCC(=O)C=C1CC[C@@H]1[C@@H]2[C@@H](O)C[C@@]2(C)[C@H]1CC[C@]2(O)C(=O)CO`, the TGI in assay [1], in assay [2], in [9], in assay [4], in assay [5] and in [10] was over 100 µM throughout. Besides, the TGI in [6] and in assay [7] was over 100 µM throughout.

As for `CC(=O)N(C)c1ccc2c(ccc[n+]2[O-])c1[N+](=O)[O-]`, the TGI in assay [1], in [2], in [9], in assay [3], in assay [4] and in [5] was over 100 µM in each case. Moreover, the TGI in assay [6], in [7] and in [8] was over 100 µM each time.

For `Nc1nc(N)c2c(n1)NC(c1ccccc1)CC(/C=C/c1ccc(Cl)cc1)=N2` (stereo unspecified), the TGI was 23.3 µM in assay [1]; over 100 µM in [2]; 23.4 µM in assay [9]; 23.4 µM in assay [4]; 32.7 µM in assay [5]; 18.4 µM in [10]. In addition, the TGI in assay [6] was 28.2 µM; in [7] it was 16.1 µM.

Turning to `O=[n+]1c2c(n([O-])c3ccccc31)-c1cccc3cccc-2c13`, the TGI in assay [1], in assay [2], in assay [9], in assay [4], in assay [10] and in assay [6] was over 100 µM throughout. The TGI in assay [7] is over 100 µM.

With `CC1(C)CCC2(C(=O)OC3OC(CO)C(O)C(O)C3O)CCC3(C)C(=CCC4C5(C)CCC(OC6OC(CO)C(O)C(O)C6O)C(C)(C)C5CCC43C)C2C1` (stereo unspecified), the TGI was over 25 µM in assay [1]; 10.4 µM in assay [2]; over 25 µM in assay [9]; over 25 µM in [4]; over 25 µM in [5]; over 25 µM in assay [10]. Also, the results for the TGI in assay [6] and in [7] were 16.4 µM and over 25 µM, respectively.

As for `COc1ccc(/C=C(\C#N)c2nc(N)nc(N3N=C(C)CC3(C)C)n2)c(O)c1`, the TGI in assay [1] amounted to 35.3 µM; in [2], 94.1 µM; in assay [9], 36 µM; in assay [4] it was 28.3 µM; in assay [5], 31.7 µM; in assay [10], 44.8 µM. The TGI in assay [6] is 46.8 µM; in [7], 42.3 µM.

Take `[O-][N+](CCO)(CCO)c1ncnc2nc[nH]c12`: the TGI in assay [1], in [2], in assay [9], in assay [4], in assay [5] and in assay [10] was over 100 µM in each case. The compound also had a TGI in assay [7] of over 100 µM.

Take `COC(=O)C1C(C)N1C` (stereo unspecified): the TGI in assay [1], in assay [2], in assay [4], in assay [6], in [7] and in assay [8] was over 100 µM each time.

Regarding `O=S1(=O)OC(c2ccc(O)cc2)(c2ccc(O)cc2)c2ccccc21`, the TGI in assay [1], in assay [2], in assay [9], in assay [4], in assay [5] and in assay [10] was over 100 µM in each case. Besides, the TGI in assay [6] and in assay [7] was over 100 µM throughout.

For the compound `CC(Sc1ccccc1)C(CO)(CO)[N+](=O)[O-]` (stereo unspecified), the TGI in assay [1] is 30.6 µM; in [2] it was 26 µM; in assay [9], 22.6 µM; in [3], 31.7 µM; in [4], 29.4 µM; in assay [5] it was 38.7 µM. In addition, the results for the TGI in assay [6], in assay [7] and in assay [8] were 16 µM, 33.3 µM and over 100 µM, respectively.

As to `C[C@]12CC[C@@H]3c4ccccc4CC[C@H]3[C@@H]1CC[C@@H]2O`, the TGI in assay [1], in assay [2], in assay [9], in assay [3], in assay [4] and in assay [5] was over 100 µM each time. Also, the TGI in assay [7] and in assay [8] was over 100 µM in each case.

As for `CC[C@@]1(O)C(=O)OCc2c1cc1n(c2=O)Cc2c-1nc1ccc(O)cc1c2CC[Si](C)(C)C`, the TGI in assay [1] is 95 µM; in [9], 0.123 µM and 0.0795 µM; in assay [4], 0.127 µM; in [5], 1.41 µM; in [10] it was 12.9 µM; in assay [6], under 0.001 µM. For the same compound, in assay [7], the TGI was 0.0103 µM and 0.0118 µM. Also, in [10], the GI50 was 0.12 µM.

For the compound `Clc1ccc(Nc2nc(Cl)c3[nH]cnc3n2)cc1Cl`, the TGI was 87.5 µM in assay [1]; over 100 µM in assay [2]; 66.6 µM in [9]; 61 µM in assay [4]; over 100 µM in [5]; 51.9 µM in assay [10]. The TGI was determined as 47.7 µM in assay [6] and 73.2 µM in assay [7].

For the compound `Cc1cc(O)c(C(C)C)cc1CN1CCCCC1`, the TGI in assay [1], in assay [2], in assay [9], in [4], in assay [5] and in [10] was over 100 µM throughout. In addition, the TGI in [6] and in assay [7] was over 100 µM each time.

On to `CC(=O)OC1CC(O)CC2=CCC3C4CCC(C(C)(O)C(O)CC5COC(=O)C5C)C4(C)CCC3C21C` (stereo unspecified), for which the TGI is over 25 µM in [1]; over 25 µM in [2]; over 25 µM in assay [9]; over 25 µM in [4]; over 25 µM in [10]; 12.8 µM in assay [6]. In assay [7], the TGI was over 25 µM.

Regarding `C/C(=N\NC(=O)c1cccnc1)c1cccc(/C(C)=N/NC(=O)c2cccnc2)n1`, the TGI was over 100 µM in assay [1]; over 100 µM in [2]; 80.7 µM in assay [9]; over 100 µM in [3]; 47.3 µM in [4]; 9.81 µM in assay [5]. For the same compound, the TGI in assay [6] is over 100 µM; in [7] it was over 100 µM; in assay [8] it was 25.5 µM. The GI50 in assay [4] was 2.05 µM; in [5], 2.6 µM; in [6], 1.67 µM; in assay [8], 5.02 µM.

`Nc1ccc2c(c1)C(=O)N(O)C2=O`: the TGI in assay [1], in assay [2], in assay [9], in assay [3], in assay [4] and in assay [5] was over 100 µM in each case. The TGI in assay [6] and in assay [7] was over 100 µM in each case.
